IC50 data for nine compounds are collected here from US20240150366A1, “4-AMINOQUINAZOLINE COMPOUND” (Astellas Pharma Inc., priority 2021, published 2024).

The structures appear in SMILES notation. Like-named read-outs stand apart in the source and are kept apart here.

The subject of test [1] is ERK phosphorylation (Thr202/Tyr204) in KRAS G12D mutant-positive pancreatic cancer line AsPC-1. Put plainly: ERK phosphorylation inhibitory activity in AsPC-1 (cell ELISA). It counts as cell-based. To be noted: Homo sapiens, ASPC1, 2 h, read-out: IC50, ERK phosphorylation inhibition. The procedure:
The ERK phosphorylation inhibitory activities of subject compounds were evaluated by measuring phosphorylation of the 202th threonine (Thr202) and the 204th tyrosine (Tyr204) of ERK located downstream of the KRAS signal by cell ELISA.
AsPC-1 cells (ATCC, CRL-1682) were seeded at 36 μL/well on a 384-well plate (from Greiner bio-one) to give 2.0×10^4 cells per well. As for the cell culture conditions, RPMI-1640 medium (from Sigma-Aldrich) containing 10% fetal bovine serum (from GE Life Sciences) was used in the presence of 5% CO2 at 37° C.
The next day, the subject compounds (6 points having final concentrations in the range of 10 μM to 0.3 nM), trametinib (MEK inhibitor) of a final concentration of 1 μM as a positive control and DMSO, which was the solvent for the subject compounds, as a negative control were diluted 100-fold with a fresh medium and were each added at 4 μL per well, followed by culturing for 2 hours. After culturing, a 30% glyoxal solution (40% glyoxal [from Wako] was diluted with Phosphate Buffered Saline [PBS; from Wako) was quickly added at 30 μL per well, and the plate was allowed to stand for an hour at room temperature to thus immobilize the cells. Then, the plate was centrifuged (110× g, seven seconds, hereinafter centrifugation was performed under the same conditions unless otherwise specified) to remove the supernatant, and 0.1% Triton X-100 (from Amersham Biosciences)—containing PBS was added at 20 μL per well. After allowing the plate to stand for 10 minutes at room temperature, the supernatant was removed by centrifugation, and the same operation was further repeated. Next, 0.5% sodium dodecyl sulfate (SDS; from Invitrogen)-containing PBS was added at 20 μL per well. The plate was allowed to stand at room temperature for 30 minutes and was then centrifuged to remove the supernatant. Subsequently, a blocking solution (Intercept Blocking Buffer; from LI-COR Biosciences) was added at 20 μL per well, and the plate was allowed to stand for an hour at room temperature. The supernatant was removed by centrifugation, and an ERK (Thr202/Tyr204) phosphorylation antibody (Phospho-p44/42 MAPK (Erk 1/2) (Thr202/Tyr204) (D13.14.4E) XP Rabbit mAb; from Cell Signaling Technology) diluted 2,500-fold with the blocking solution was added at 10 μL per well as a primary antibody. The plate was allowed to stand at 4° C. overnight.
The next day, the plate was centrifuged to remove the supernatant, and 0.05% Tween-20-containing PBS (from Thermo Scientific; 20× PBS Tween-20 was diluted 20-fold with ion exchange water and used) was added at 20 μL per well. The supernatant was removed by centrifugation to thus wash each well. The washing was performed three times in total. After washing, an IRDye 800CW Goat anti-Rabbit IgG (from LI-COR Biosciences) diluted 1,000-fold with the blocking solution was added at 10 μL per well as a secondary antibody, and the plate was allowed to stand for an hour at room temperature. The plate was centrifuged to remove the supernatant, and each well was washed three times with 0.05% Tween-20-containing PBS in the same manner as after the primary antibody reaction. Centrifugation after the third washing was performed at 171×g for 17 seconds. After removing the supernatant, the plate was dried as it was with air at room temperature for three hours or more, and the 800-nm fluorescent signals were measured with Aerius (from LI-COR Biosciences).
With the signaling value at the time of addition of DMSO taken as 0% inhibition and with the signaling value at the time of addition of […] trametinib taken as 100% inhibition, the 50% inhibition values (IC50) were calculated by Sigmoid-Emax model nonlinear regression analysis.

The subject of test [2] is KRAS G12D mutant-positive pancreatic cancer line AsPC-1. The test can be described thus: Non-anchorage-dependent cell growth inhibitory activity in AsPC-1 (spheroid 3D culture). It is filed as cell-based. The note with it: Homo sapiens, ASPC1, 144 h, read-out: IC50, non-anchorage-dependent cell growth inhibition. The procedure: The non-anchorage-dependent cell growth inhibitory activities of subject compounds were evaluated by spheroid 3D cell culture.
AsPC-1 cells were seeded at 36 μL/well on a low-cell-adhesive round bottom 384-well plate (Prime Surface: from Sumitomo Bakelite) to give 5×10^2 cells per well. The cell culture was performed under the same conditions as in the Test Example 2.
The next day, the subject compounds (6 points having final concentrations in the range of 10 μM to 3.0 nM) and DMSO, which was the solvent for the subject compounds, as a negative control were diluted 100-fold with a fresh medium and were each added at 4 μL per well. After culturing in the presence of 5% CO2 at 37° C. for six days, CellTiter Glo 2.0 (from Promega) was added at 20 μL per well. After stirring with a plate mixer (from FINEPCR) at normal temperature for an hour, the luminescent signals were measured with ARVO X3 (from PerkinElmer).
With the signaling value in treatment with DMSO taken as 0% inhibition and with the signaling value in the medium alone without cells taken as 100% inhibition, the 50% inhibition values (IC50) were calculated by Sigmoid-Emax model nonlinear regression analysis.

For test [3], the target named is KRAS G12D/SOS/c-Raf complex (Homo sapiens (Human), UniProt P01116, G12D). Put plainly: KRAS G12D/SOS/c-Raf complex formation inhibitory activity (TR-FRET). The note with it: human recombinant proteins, 1 hour at room temperature, read-out: IC50, KRAS G12D/SOS/c-Raf complex formation inhibition. It is filed as biochemical. The procedure: Using human recombinant KRAS G12D, SOS and c-Raf proteins, the inhibitory activity of subject compounds on the complex formation of the proteins was examined by a time-resolved fluorescence resonance energy transfer (TR-FRET) method.
KRAS G12D/SOS/c-Raf complex, sequence (P01116 other isoform, or with tags, fused parts or gaps G12D): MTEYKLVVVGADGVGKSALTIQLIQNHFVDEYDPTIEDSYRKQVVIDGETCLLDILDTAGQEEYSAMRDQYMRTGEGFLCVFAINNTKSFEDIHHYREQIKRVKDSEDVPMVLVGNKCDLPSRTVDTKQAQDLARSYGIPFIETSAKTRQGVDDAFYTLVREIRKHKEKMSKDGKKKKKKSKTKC
Biotinylated AviTag-KRAS G12D (amino acid region of 1-185, GDP) (2.5 μL; 400 nM) and subject compounds dissolved in an assay buffer (50 mM HEPES, 150 mM NaCl, 5 mM MgCl2, 0.05% Tween 20, pH 7.0) were added to a 384-well plate (from Corning) in a liquid volume of 2.5 μL at 40,000 nM to 40 nM. Son of Sevenless (SOS) (amino acid region of 564-1049, 2.5 μL; 1.3 μM) and c-Raf (amino acid region of 51-131) GST (2.5 μL; 130 nM) containing GTP (from Sigma-Aldrich; 2 μM) were added to the plate, and the plate was allowed to stand for 1 hour at room temperature. Then, a mixture liquid (10 μL) of LANCE Ulight-anti-GST (from PerkinElmer; 120 nM) and LANCE Eu-W1024 labeled Streptoavidin (from PerkinElmer; 100 ng/mL) was added, and the 620-nm and 665-nm fluorescence intensities were measured using EnVision 2104 (from PerkinElmer) under the conditions of an excitation wavelength of 337 nm. After standardizing the values with the fluorescence intensity at a reference wavelength of 620 nm, the 50% inhibitory concentrations (IC50) were calculated by Sigmoid-Emax model nonlinear regression analysis with the signaling value in treatment with the solvent taken as 0% inhibition and with the signaling value without the addition of GTP taken as 100% inhibition.

Setting [4] is: AsPC-1 spheroid 3D culture, six days, CellTiter Glo 2.0.

As to `Cc1c(F)cc2[nH]ncc2c1-c1c(C2CC2)cc2c(N3C[C@@H]4C[C@H]3CN4)nc(OCc3cccnc3C(C)C)nc2c1OCc1ccc(Cn2c(=O)n(C)c3ncccc32)cc1` [Example 10, 1-[(4-{[(6-cyclopropyl-4-[(1S,4S)-2,5-diazabicyclo[2.2.1]heptan-2-yl]-7-(6-fluoro-5-methyl-1H-indazol-4-yl)-2-{[2-(propan-2-yl)pyridin-3-yl]methoxy}quinazolin-8-yl)oxy]methyl}phenyl)methyl]-3-methyl-1,3-dihydro-2H-imidazo[4,5-b]pyridin-2-one], the values for the IC50 in test [1], in test [2] and in test [3] were 41 nM, 77 nM and 33 nM, respectively.

Consider `Cc1c(F)cc2[nH]ncc2c1-c1c(C2CC2)cc2c(N3C[C@@H]4C[C@H]3CN4)nc(OC3CCOCC3)nc2c1OCc1ccc(Cn2c(=O)n(C)c3nccnc32)cc1` (single isomer, unassigned) [Example 1], for which the IC50 in test [2] (setting [4]) turned out to be 68 nM; in test [3] it was 44 nM.

With `Cc1c(F)cc2[nH]ncc2c1-c1c(C2CC2)cc2c(N3C[C@@H]4C[C@H]3CN4)nc(OC3CCOCC3)nc2c1OCc1ccc(Cc2nc3n(n2)CCC3)cc1` [Example 18, 6-cyclopropyl-4-[(1S,4S)-2,5-diazabicyclo[2.2.1]heptan-2-yl]-8-({4-[(6,7-dihydro-5H-pyrrolo[1,2-b][1,2,4]triazol-2-yl)methyl]phenyl}methoxy)-7-(6-fluoro-5-methyl-1H-indazol-4-yl)-2-[(oxan-4-yl)oxy]quinazoline], the IC50 was 192 nM in test [2] and 92 nM in test [3].

With `Cc1c(F)cc2[nH]ncc2c1-c1c(C2CC2)cc2c(N3C[C@@H]4C[C@H]3CN4)nc(OC3CCOCC3)nc2c1OCc1ccc(Cc2ncn(C3CCOCC3)n2)cc1` [Example 19, 6-cyclopropyl-4-[(1S,4S)-2,5-diazabicyclo[2.2.1]heptan-2-yl]-7-(6-fluoro-5-methyl-1H-indazol-4-yl)-2-[(oxan-4-yl)oxy]-8-[(4-{[1-(oxan-4-yl)-1H-1,2,4-triazol-3-yl]methyl}phenyl)methoxy]quinazoline], the IC50 in test [2] turned out to be 189 nM; in test [3] it was 65 nM.

In the case of `Cc1c(F)cc2[nH]ncc2c1-c1c(C2CC2)cc2c(N3C[C@@H]4C[C@H]3CN4)nc(OC3CCOCC3)nc2c1OCc1ccc(CN2C(=O)CN(C)c3ncccc32)cc1` [Example 23, 1-({4-[({6-cyclopropyl-4-[(1S,4S)-2,5-diazabicyclo[2.2.1]heptan-2-yl]-7-(6-fluoro-5-methyl-1H-indazol-4-yl)-2-[(oxan-4-yl)oxy]quinazolin-8-yl}oxy)methyl]phenyl}methyl)-4-methyl-3,4-dihydropyrido[2,3-b]pyrazin-2(1H)-one], the IC50 in test [3] is 68 nM.

Turning to `Cc1c(F)cc2[nH]ncc2c1-c1c(C2CC2)cc2c(N3C[C@@H]4C[C@H]3CN4)nc(OC3CCOCC3)nc2c1OCc1ccc(Cc2cn3ccncc3n2)cc1` [Example 20, 6-cyclopropyl-4-[(1S,4S)-2,5-diazabicyclo[2.2.1]heptan-2-yl]-7-(6-fluoro-5-methyl-1H-indazol-4-yl)-8-({4-[(imidazo[1,2-a]pyrazin-2-yl)methyl]phenyl}methoxy)-2-[(oxan-4-yl)oxy]quinazoline], the values for the IC50 in test [2] and in test [3] were 138 nM and 70 nM, respectively.

With `Cc1c(F)cc2[nH]ncc2c1-c1c(C2CC2)cc2c(N3C[C@@H]4C[C@H]3CN4)nc(OC3CCOCC3)nc2c1OCc1ccc(CN2CCN(CC3CC3)CC2=O)cc1` [Example 7, 1-({4-[({6-cyclopropyl-4-[(1S,4S)-2,5-diazabicyclo[2.2.1]heptan-2-yl]-7-(6-fluoro-5-methyl-1H-indazol-4-yl)-2-[(oxan-4-yl)oxy]quinazolin-8-yl}oxy)methyl]phenyl}methyl)-4-(cyclopropylmethyl)piperazin-2-one], the results for the IC50 in test [2] and in test [3] were 80 nM and 105 nM, respectively.

For `Cc1c(F)cc2[nH]ncc2c1-c1c(C2CC2)cc2c(N3C[C@@H]4C[C@H]3CN4)nc(OC3CCOCC3)nc2c1OCc1ccc(Cc2nc(C3CC3)n(C)n2)cc1` [Example 22, 6-cyclopropyl-8-({4-[(5-cyclopropyl-1-methyl-1H-1,2,4-triazol-3-yl)methyl]phenyl}methoxy)-4-[(1 S,4S)-2,5-diazabicyclo[2.2.1]heptan-2-yl]-7-(6-fluoro-5-methyl-1H-indazol-4-yl)-2-[(oxan-4-yl)oxy]quinazoline], the figures for the IC50 in test [2] (setting [4]) and in test [3] were 209 nM and 161 nM, respectively.

Take `CCc1nc(Cc2ccc(COc3c(-c4c(C)c(F)cc5[nH]ncc45)c(C4CC4)cc4c(N5C[C@@H]6C[C@H]5CN6)nc(OC5CCOCC5)nc34)cc2)nn1C` [Example 15, 6-cyclopropyl-4-[(1S,4S)-2,5-diazabicyclo[2.2.1]heptan-2-yl]-8-({4-[(5-ethyl-1-methyl-1H-1,2,4-triazol-3-yl)methyl]phenyl}methoxy)-7-(6-fluoro-5-methyl-1H-indazol-4-yl)-2-[(oxan-4-yl)oxy]quinazoline]: the IC50 in test [2] came to 152 nM; in test [3], 88 nM.
